The source of these data is patent US20100204114A1, “USE OF A GALANIN PEPTIDE AS A THERAPEUTIC AGENT” (priority 2007, published 2010).

Where no end group is shown, it is not given here.

The subject of test [1] is HIV-1IIIB. The test can be described thus: HIV-1 antiviral assay in CEM-SS cells (MTS readout). The format is cell-based.
In test [2] the test system is HCMV strain AD169. The test can be described thus: HCMV plaque formation assay in MRC-5 cells. As to conditions: for inhibition of HCMV plaque formation as compared to the virus control: 10 micrograms per ml, 7-10 days.
The subject of test [3] is hepatitis B virus (HBV) ayw strain in HepG2-2.2.15 cells. The test can be described thus: HBV experimental assay system, secreted HBV DNA by TaqMan PCR. The test is classed as cell-based. The note with it: 10 micrograms per ml, six days. From the text:
HepG2-2.2.15 is a stable cell line containing the hepatitis B virus (HBV) ayw strain genome (ATCC Cat. No. CRL-11997). Antiviral compounds blocking any late step of viral replication such as transcription, translation, pregenome encapsidation, reverse transcription, particle assembly and release can be identified and characterized using this cell line. In this assay, an active compound will reduce the production of secreted HBV from cells, measured by utilizing real time quantitative PCR (TaqMan) assay to directly and accurately measure HBV DNA copies.
HepG2-2.2.15 cells were plated in 96-well microtiter plates. After 16-24 hours the confluent monolayer of HepG2-2.2.15 cells was washed and the medium was replaced with complete medium containing test peptides—10 micrograms per ml—in duplicate. […] Six days following the initial administration of the peptides, the cell culture supernatants was collected, treated with pronase and DNAse and then used in a real-time quantitative TaqMan PCR assay. The PCR-amplified HBV DNA was detected in real-time by monitoring increases in fluorescence signals that result from the exonucleolytic degradation of a quenched fluorescence probe molecule that hybridizes to the amplified HBV DNA. […] Antiviral activity was calculated from the reduction in HBV DNA levels (% virus control). […]

In test [4] the test system is spleen cells of Ovalbumin-immunized Balb/c mice. Description: Th1/Th2 cytokine profiling assay (Ovalbumin-restimulated spleen cells, CBA kit). The test is classed as cell-based, mouse. As to conditions: 10 micrograms per ml; Ovalbumin restimulation; 72 hours. The text has this:
The Balb/c mice (originated in 1923, it is a popular strain and is used in many different research disciplines. […] On day 50, spleens of the mice were harvested (3 weeks after last boost with Ovalbumin). […] This kit can be used to measure Interleukin-2 (IL-2), Interleukin-4 (IL-4), Interleukin-5 (IL-5), Interferon-γ (IFN-γ), and Tumor Necrosis Factor-α (TNF-α) protein levels in a single sample. The kit performance has been optimized for analysis of physiologically relevant concentrations ([…] levels) of specific cytokine proteins in tissue culture supernatants and serum samples.

Test [5] concerns Primary Human endothelial cells (HUVEC). Description: Endothelial cell migration assay. The test is classed as cell-based. The note with it: 10 micrograms per ml, 22 hours.
The subject of test [6] is HUVEC. The test can be described thus: Endothelial tube formation assay. The test is classed as cell-based, human. The note with it: 10 micrograms per ml, 20 hours.

As to `Cc1cn([C@H]2C[C@H](N=[N+]=[N-])[C@@H](CO)O2)c(=O)[nH]c1=O` [AZT], in test [1], the “antiviral activity of positive control compounds (HIV-1)” value is “expected levels of antiviral activity”.
For `Nc1nc(O)c2ncn(COC(CO)CO)c2n1` [Ganciclovir, reference compound], the “antiviral activity of positive control compound (HCMV)” value in test [2] (positive control) is given as “expected levels of antiviral activity”.
On to `CC(C)(C)NC(=O)[C@@H]1CN(Cc2cccnc2)CCN1C[C@@H](O)C[C@@H](Cc1ccccc1)C(=O)N[C@H]1c2ccccc2C[C@H]1O` [indinavir], for which, in test [1], the “antiviral activity of positive control compounds (HIV-1)” value is “expected levels of antiviral activity”.
Regarding “Gly-Trp-Thr-Leu-Asn-Ser-Ala-Gly-Tyr-Leu-Leu-Gly-Pro-His-Ala-Val-Gly-Asn-His-Arg-Ser-Phe-Ser-Asp-Lys-Asn-Gly-Leu-Thr-Ser-OH [peptide 1]”, the “inhibition of HBV replication as compared to the virus control infection” value in test [3] was “no effect”. In test [4], the “IFNγ spleen cells; TH1 response (% of control)” value is on record as 144.1 % of control, the “IL-2 spleen cells (% of control)” value was 149.6 % of control, the “IL-4 spleen cells; TH2 response (% of control)” value is 115.3 % of control and the “IL-5 spleen cells; TH2 response (% of control)” value is 78.8 % of control. Further, the “TNF-a spleen cells; TH1 response (% of control)” value in test [4] is reported as 118.8 % of control. Besides, the “inhibition of the migration of human endothelial cells” value in test [5] stood at 29%. In test [6], the “inhibition of the tube formation of endothelial cells” value was 11%. In addition, the “inhibition of HCMV plaque formation as compared to the virus control” value in test [2] is reported as “did not inhibit”.
As for “Ile-Tyr-Leu-Gly-Gly-Pro-Phe-Ser-Pro-Asn-Val-Leu-OH (IYLGGPFSPNVL-OH) [peptide 2]”, the “inhibition of HBV replication as compared to the virus control infection” value in test [3] was 34.1%. In addition, in test [4], the “IFNγ spleen cells; TH1 response (% of control)” value was 102.8 % of control, the “IL-2 spleen cells (% of control)” value was 150.7 % of control, the “IL-4 spleen cells; TH2 response (% of control)” value is on record as 182.0 % of control and the “IL-5 spleen cells; TH2 response (% of control)” value is given as 73.5 % of control. The “TNF-a spleen cells; TH1 response (% of control)” value in test [4] was 114.1 % of control. Also, the “inhibition of the migration of human endothelial cells” value in test [5] is “did not inhibit”. For the same compound, the “inhibition of the tube formation of endothelial cells” value in test [6] came to 29%. Moreover, the “inhibition of HCMV plaque formation as compared to the virus control” value in test [2] was “did not inhibit”.
